Values joined by “and” are separate entries in the source; they are usually repeats but may differ in a detail not shown here. Equal entries are not always repeated.
Biological target: T1, Gαq (Homo sapiens, UniProt P50148)
T1 construct: expressed in transfected cells; host or cells: HEK293SL
Assay: Gαq BRET sensor, AT1R-mediated
Format: cell-based
Procedure: HEK293SL cells were seeded at a density of 7.5 × 10^5 cells per 100-mm dish and 24 h later, transiently transfected as such. For receptor internalization experiments, cells were transfected with 0.12 μg AT1R-RlucII, B2R-RlucII, or β2AR-RlucII and 0.48 μg of either rGFP-CAAX (to assess removal from the PM) or rGFP-FYVE (to assess accumulation in the endosomes). For β-arrestin recruitment assays, cells were transfected with 0.48 μg of receptor-YFP along with 0.12 μg of β-arrestin-RlucII. For β-arrestin/AP-2 binding experiments, cells were transfected with 1 μg Flag-AT1R, 1 μg β2-Adaptin-YFP, and 0.12 μg β-arrestin2-RlucII. For G protein activation, cells were transfected with 3 μg of sp-Flag-AT1R along with either 4.5 μg of the Gαq-polycistronic BRET sensor or 0.24 μg of the Gαi3-RlucII and 0.6 μg of GFP10-Gγ2 and Gβ1 sensors or 0.12 μg PKN-RBD-RlucII and 0.48 μg of rGFP-CAAX. For PKC activation, cells were transfected with 3 μg of sp-Flag-AT1R and 0.18 μg of the PKC sensor. For GTPase activation experiments, cells were transfected with 1 μg Flag-AT1R, 0.48 μg of rGFP-CAAX, and either 0.12 μg of GGA3-PBD-RlucII, PAK-CRIB-RlucII or Raf-RBD-RlucII. For biosensor validation experiments, cells were additionally transfected with 500 ng Flag-K-Ras-WT, Flag-K-Ras-G12V, Flag-K-Ras-SOS-CAAX, HA-ARF6-WT, HA-ARF6-T27N, Myc-Rac1-WT, Myc-Rac1-Q61L or Myc-Rac1-T17N. For PI3K/Akt activation experiments, cells were transfected with 0.48 μg of rGFP-CAAX and 0.12 μg of Akt (PH)-RlucII. After 18 h of transfection, the media was replaced and cells were divided for subsequent experiments. Cells were detached and seeded onto poly-L-ornithine-coated 96-well flat white bottom plates (BrandTech Scientific) at a density of 2.5 × 10^4 cells per well in media. […] For kinetics of β-arrestin recruitment or β-arrestin binding to receptor and AP-2 experiments, cells were serum starved for 30 min, pretreated with 21 (50 µM) or Barbadin (100 µM) for 30 min, stimulated with 100 nM AngII or 1 µM BK and BRET signals were monitored at indicated times using a Victor X Light plate reader (PerkinElmer). […] The BRET ratio was determined by calculating the ratio of the light emitted by YFP over the light emitted by the RlucII. […] For the kinetics of GTPase and PI3K/Akt activation, cells were serum starved, pretreated with 21 (50 µM) or Wortmannin (200 nM) for 30 min, stimulated with ligand (100 nM AngII or 100 ng/ml EGF) and BRET signals were monitored at indicated times. […] BRET signals were monitored using a Synergy2 (BioTek) microplate reader and coelenterazine 400a (final concentrations of 5 µM) added 3–5 min prior to BRET measurements. […] The BRET ratio was determined by calculating the ratio of the light emitted by rGFP/GFP10 over the light emitted by the RlucII.

T1 sequence (P50148 whole entry): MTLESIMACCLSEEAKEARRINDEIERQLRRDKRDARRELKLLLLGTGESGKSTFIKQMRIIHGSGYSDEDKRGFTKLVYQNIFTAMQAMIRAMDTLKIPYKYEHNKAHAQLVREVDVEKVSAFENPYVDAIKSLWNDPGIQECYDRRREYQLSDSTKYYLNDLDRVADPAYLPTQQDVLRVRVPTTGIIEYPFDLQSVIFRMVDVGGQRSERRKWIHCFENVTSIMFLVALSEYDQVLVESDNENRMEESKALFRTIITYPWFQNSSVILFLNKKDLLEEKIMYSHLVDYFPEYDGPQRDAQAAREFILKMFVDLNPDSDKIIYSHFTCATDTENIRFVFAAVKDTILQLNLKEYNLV
T1 sequence (P62873 whole entry partner): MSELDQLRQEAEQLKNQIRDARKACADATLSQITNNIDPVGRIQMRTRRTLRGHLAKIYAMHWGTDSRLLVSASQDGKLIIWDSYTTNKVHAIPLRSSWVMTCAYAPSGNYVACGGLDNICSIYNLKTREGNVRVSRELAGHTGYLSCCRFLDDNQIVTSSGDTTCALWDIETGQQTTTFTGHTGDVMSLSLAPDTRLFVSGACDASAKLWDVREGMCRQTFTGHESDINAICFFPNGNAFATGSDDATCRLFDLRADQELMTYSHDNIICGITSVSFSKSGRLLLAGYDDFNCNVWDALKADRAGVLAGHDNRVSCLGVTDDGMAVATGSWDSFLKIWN
T1 sequence (P63211 2-71 partner limits assumed): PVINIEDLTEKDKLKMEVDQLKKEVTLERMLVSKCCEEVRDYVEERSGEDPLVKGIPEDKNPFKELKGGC

## CC(C)C(=O)N1CCN(c2ccc(NC(=O)c3cc4ccccc4o3)cc2Cl)CC1 [Compound 21]
  Mean Diff. DMSO vs. compound, Gq (Dunnett's multiple comparisons test): 0.009667
50 μM
  Gαq engagement by AT1R (BRET sensor): lack of inhibitory effects
Listed as Comp 21
  Gq BRET sensor signal (S_Fig.4b), single experiments: 0.1945 and 0.171 and 0.2095

From paper PMC8333425, “Discovery of a dual Ras and ARF6 inhibitor from a GPCR endocytosis screen” (Nature Communications, 2021)
